Laboratory results reported in PubChem BioAssay AID270 (DTP/NCI, 2004).
Several values for one entry are separate records, joined by “and”; a condition that tells them apart may be missing. Equal values may be shown once. Results filed as inconclusive are left out.

System: BDF1 mice, s.c. Lewis lung carcinoma, T/C %
Test: NCI In Vivo Anticancer Drug Screen. Data for tumor model Lewis Lung Carcinoma (subcutaneous) in B6D2F1 (BDF1) mice
Summary of the method: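 Transplanted tumors grown in mice; compound vs vehicle dosing; endpoint survival or tumor size; ratio T/C.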

`O=NN(CCCl)C(=O)NC1CSCSC1` was tested, and the T/C (endpoint: median survival time, dose: 1.56 mg/kg/injection, schedule: Q01DX009 (ip), vehicle: saline with Tween-80, higher = longer survival) was 106 % of control, the T/C (endpoint: median survival time, dose: 3.12 mg/kg/injection, schedule: Q01DX009 (ip), vehicle: saline with Tween-80, higher = longer survival) was 104 % of control and the T/C (endpoint: median survival time, dose: 4.7 mg/kg/injection, schedule: Q04DX004 (ip), vehicle: saline with Tween-80, higher = longer survival) was 95 % of control. For the same molecule, the T/C (endpoint: median survival time, dose: 5.0 mg/kg/injection, schedule: Q01DX001 (ip), vehicle: saline with Tween-80, higher = longer survival) was 116 % of control, the T/C (endpoint: median survival time, dose: 6.25 mg/kg/injection, schedule: Q01DX009 (ip), vehicle: saline with Tween-80, higher = longer survival) was 96 % of control and the T/C (endpoint: median survival time, dose: 7.0 mg/kg/injection, schedule: Q01DX001 (ip), vehicle: saline with Tween-80, higher = longer survival) was 117 % of control. The T/C (endpoint: median survival time, dose: 11.0 mg/kg/injection, schedule: Q04DX004 (ip), vehicle: saline with Tween-80, higher = longer survival) was 112 % of control, the T/C (endpoint: median survival time, dose: 12.5 mg/kg/injection, schedule: Q01DX009 (ip), vehicle: saline with Tween-80, higher = longer survival) was 109 % of control and the T/C (endpoint: median survival time, dose: 16.5 mg/kg/injection, schedule: Q04DX004 (ip), vehicle: saline with Tween-80, higher = longer survival) was 71 % of control. The T/C (endpoint: median survival time, dose: 23.0 mg/kg/injection, schedule: Q01DX001 (ip), vehicle: saline with Tween-80, higher = longer survival) was 163 % of control, the T/C (endpoint: median tumor weight (est.), dose: 7.3 mg/kg/injection, schedule: Q01DX001 (ip), vehicle: saline with Tween-80, higher = larger tumour) was 97 % of control and the T/C (endpoint: median tumor weight (est.), dose: 15.0 mg/kg/injection, schedule: Q01DX001 (ip), vehicle: saline with Tween-80, higher = larger tumour) was 32 % of control and 40 % of control. The T/C (endpoint: median tumor weight (est.), dose: 22.0 mg/kg/injection, schedule: Q01DX001 (ip), vehicle: saline with Tween-80, higher = larger tumour) was 8 % of control.
`COc1ccccc1-c1cc(=O)c2ccc(OC)c(OC)c2o1` was tested, and the T/C (endpoint: mean tumor weight, dose: 18.8 mg/kg/injection, schedule: Q01DX010 (ip), vehicle: saline, higher = larger tumour) was 99 % of control, the T/C (endpoint: mean tumor weight, dose: 37.5 mg/kg/injection, schedule: Q01DX010 (ip), vehicle: saline, higher = larger tumour) was 81 % of control and the T/C (endpoint: mean tumor weight, dose: 75.0 mg/kg/injection, schedule: Q01DX010 (ip), vehicle: saline, higher = larger tumour) was 108 % of control. For the same molecule, the T/C (endpoint: mean tumor weight, dose: 150.0 mg/kg/injection, schedule: Q01DX010 (ip), vehicle: saline, higher = larger tumour) was 76 % of control.
With `COC(=O)[C@H]1[C@H]2C[C@@H]3c4[nH]c5cc(OC)ccc5c4CCN3C[C@H]2C[C@@H](OC(=O)c2cc(OC)c(OC)c(OC)c2)[C@@H]1OC` the T/C (endpoint: median survival time, dose: 0.25 mg/kg/injection, schedule: Q01DX009 (ip), vehicle: Klucel (hydroxypropylcellulose) (HPC), higher = longer survival) was 91 % of control, the T/C (endpoint: median survival time, dose: 0.5 mg/kg/injection, schedule: Q01DX009 (ip), vehicle: Klucel (hydroxypropylcellulose) (HPC), higher = longer survival) was 97 % of control and 243 % of control and the T/C (endpoint: median survival time, dose: 1.0 mg/kg/injection, schedule: Q01DX009 (ip), vehicle: Klucel (hydroxypropylcellulose) (HPC), higher = longer survival) was 103 % of control. For the same molecule, the T/C (endpoint: median survival time, dose: 2.0 mg/kg/injection, schedule: Q01DX009 (ip), vehicle: Klucel (hydroxypropylcellulose) (HPC), higher = longer survival) was 96 % of control and 243 % of control.
`CN1C2CCC1CC(OC(=O)C(CO)c1ccccc1)C2` (centres undefined) was tested, and the T/C (endpoint: mean tumor weight, dose: 12.5 mg/kg/injection, schedule: Q01DX011 (ip), vehicle: saline, higher = larger tumour) was 92 % of control, the T/C (endpoint: mean tumor weight, dose: 50.0 mg/kg/injection, schedule: Q01DX011 (ip), vehicle: saline, higher = larger tumour) was 72 % of control and the T/C (endpoint: mean tumor weight, dose: 100.0 mg/kg/injection, schedule: Q01DX011 (ip), vehicle: saline, higher = larger tumour) was 154 % of control.
With `CCOC(=O)C(=CNc1cccc(Cl)c1)C(=O)OCC` the T/C (endpoint: mean tumor weight, dose: 148.0 mg/kg/injection, schedule: Q01DX011 (ip), vehicle: other, higher = larger tumour) was 153 % of control and the T/C (endpoint: mean tumor weight, dose: 222.0 mg/kg/injection, schedule: Q01DX011 (ip), vehicle: other, higher = larger tumour) was 113 % of control.
In the case of `C/C=C1\CN(C)[C@H]2Cc3c([nH]c4ccccc34)[C@@H](c3cc4[nH]c5c(c4cc3OC)CCN3C[C@H]4C[C@H](CC)[C@H]3[C@@]5(C(=O)OC)C4)C[C@H]1C2C(=O)OC` (some centres undefined), the T/C (endpoint: mean tumor weight, dose: 18.0 mg/kg/injection, schedule: Q01DX011 (ip), vehicle: water, higher = larger tumour) is reported as 66 % of control, the T/C (endpoint: mean tumor weight, dose: 27.0 mg/kg/injection, schedule: Q01DX011 (ip), vehicle: water, higher = larger tumour) is reported as 81 % of control and the T/C (endpoint: mean tumor weight, dose: 40.0 mg/kg/injection, schedule: Q01DX011 (ip), vehicle: water, higher = larger tumour) is reported as 62 % of control.
In the case of `c1ccc2c3c(ccc2c1)Sc1ccc2ccccc2c1N3`, the T/C (endpoint: mean tumor weight, dose: 400.0 mg/kg/injection, schedule: Q01DX011 (ip), vehicle: other, higher = larger tumour) is reported as 78 % of control, the T/C (endpoint: mean tumor weight, dose: 600.0 mg/kg/injection, schedule: Q01DX011 (ip), vehicle: other, higher = larger tumour) is reported as 57 % of control and the T/C (endpoint: mean tumor weight, dose: 800.0 mg/kg/injection, schedule: Q01DX011 (ip), vehicle: other, higher = larger tumour) is reported as 57 % of control.
In the case of `CC(C)[C@]1(O)CC[C@H]2[C@@H]3CCc4cc(O)ccc4[C@H]3CC[C@@]21C`, the T/C (endpoint: mean tumor weight, dose: 2.5 mg/kg/injection, schedule: Q01DX011 (sc), vehicle: saline, higher = larger tumour) is reported as 87 % of control, the T/C (endpoint: mean tumor weight, dose: 5.0 mg/kg/injection, schedule: Q01DX011 (sc), vehicle: saline, higher = larger tumour) is reported as 68 % of control and the T/C (endpoint: mean tumor weight, dose: 10.0 mg/kg/injection, schedule: Q01DX011 (sc), vehicle: saline, higher = larger tumour) is reported as 80 % of control. For the same molecule, the T/C (endpoint: mean tumor weight, dose: 10.0 mg/kg/injection, schedule: Q01DX011 (sc), vehicle: steriod suspending solution, higher = larger tumour) was 51 % of control, the T/C (endpoint: mean tumor weight, dose: 20.0 mg/kg/injection, schedule: Q01DX011 (sc), vehicle: steriod suspending solution, higher = larger tumour) was 65 % of control and the T/C (endpoint: mean tumor weight, dose: 40.0 mg/kg/injection, schedule: Q01DX011 (sc), vehicle: steriod suspending solution, higher = larger tumour) was 36 % of control. For the same molecule, the T/C (endpoint: mean tumor weight, dose: 80.0 mg/kg/injection, schedule: Q01DX011 (sc), vehicle: steriod suspending solution, higher = larger tumour) was 55 % of control.
